“And” between values parts separate entries of the source, which are not always exact repeats. Equal values may be shown once.
Assays:
hCA XII = hCA XII (Homo sapiens, UniProt O43570); assay: CA inhibitory activity, spectrophotometric p-NPA assay; type: biochemical; conditions: p-NPA substrate, pH 7.5, 25 °C, triplicate; read-out: IC50 (µM) ± SD hCA XII
RPMI-8226 = assay: NCI-60 one-dose SRB screen (Leukemia); type: cell-based; conditions: Homo sapiens, single dose 10 µM, 48 h, read-out: Growth inhibition percent (GI %)
MOLT-4 = assay: NCI-60 one-dose SRB screen (Leukemia); type: cell-based; conditions: Homo sapiens, single dose 10 µM, 48 h, read-out: Growth inhibition percent (GI %)
SR = assay: NCI-60 one-dose SRB screen (Leukemia); type: cell-based; conditions: Homo sapiens, single dose 10 µM, 48 h, read-out: Growth inhibition percent (GI %)
K-562 = assay: NCI-60 one-dose SRB screen (Leukemia); type: cell-based; conditions: Homo sapiens, K562, single dose 10 µM, 48 h, read-out: Growth inhibition percent (GI %)
CCRF-CEM = assay: NCI-60 one-dose SRB screen (Leukemia); type: cell-based; conditions: Homo sapiens, single dose 10 µM, 48 h, read-out: Growth inhibition percent (GI %)
HL-60(TB) = assay: NCI-60 one-dose SRB screen (Leukemia); type: cell-based; conditions: Homo sapiens, single dose 10 µM, 48 h, read-out: Growth inhibition percent (GI %)
SK-MEL-5 = assay: NCI-60 one-dose SRB screen (Melanoma); type: cell-based; conditions: Homo sapiens, single dose 10 µM, 48 h, read-out: Growth inhibition percent (GI %)
UACC-257 = assay: NCI-60 one-dose SRB screen (Melanoma); type: cell-based; conditions: Homo sapiens, single dose 10 µM, 48 h, read-out: Growth inhibition percent (GI %)
LOX IMVI = assay: NCI-60 one-dose SRB screen (Melanoma); type: cell-based; conditions: Homo sapiens, single dose 10 µM, 48 h, read-out: Growth inhibition percent (GI %)
SK-MEL-28 = assay: NCI-60 one-dose SRB screen (Melanoma); type: cell-based; conditions: Homo sapiens, single dose 10 µM, 48 h, read-out: Growth inhibition percent (GI %)
M14 = assay: NCI-60 one-dose SRB screen (Melanoma); type: cell-based; conditions: Homo sapiens, single dose 10 µM, 48 h, read-out: Growth inhibition percent (GI %)
MALME-3M = assay: NCI-60 one-dose SRB screen (Melanoma); type: cell-based; conditions: Homo sapiens, single dose 10 µM, 48 h, read-out: Growth inhibition percent (GI %)
MDA-MB-435 = assay: NCI-60 one-dose SRB screen (Melanoma); type: cell-based; conditions: Homo sapiens, single dose 10 µM, 48 h, read-out: Growth inhibition percent (GI %)
UACC-62 = assay: NCI-60 one-dose SRB screen (Melanoma); type: cell-based; conditions: Homo sapiens, single dose 10 µM, 48 h, read-out: Growth inhibition percent (GI %)
SK-MEL-2 = assay: NCI-60 one-dose SRB screen (Melanoma); type: cell-based; conditions: Homo sapiens, single dose 10 µM, 48 h, read-out: Growth inhibition percent (GI %)
SF-539 = assay: NCI-60 one-dose SRB screen (CNS Cancer); type: cell-based; conditions: Homo sapiens, single dose 10 µM, 48 h, read-out: Growth inhibition percent (GI %)
SF-295 = assay: NCI-60 one-dose SRB screen (CNS Cancer); type: cell-based; conditions: Homo sapiens, single dose 10 µM, 48 h, read-out: Growth inhibition percent (GI %)
U251 = assay: NCI-60 one-dose SRB screen (CNS Cancer); type: cell-based; conditions: Homo sapiens, U-251, single dose 10 µM, 48 h, read-out: Growth inhibition percent (GI %)
SNB-19 = assay: NCI-60 one-dose SRB screen (CNS Cancer); type: cell-based; conditions: Homo sapiens, single dose 10 µM, 48 h, read-out: Growth inhibition percent (GI %)
SNB-75 = assay: NCI-60 one-dose SRB screen (CNS Cancer); type: cell-based; conditions: Homo sapiens, single dose 10 µM, 48 h, read-out: Growth inhibition percent (GI %)
SF-268 = assay: NCI-60 one-dose SRB screen (CNS Cancer); type: cell-based; conditions: Homo sapiens, single dose 10 µM, 48 h, read-out: Growth inhibition percent (GI %)
OVCAR-3 = assay: NCI-60 one-dose SRB screen (Ovarian cancer); type: cell-based; conditions: Homo sapiens, single dose 10 µM, 48 h, read-out: Growth inhibition percent (GI %)
NCI/ADR-RES = assay: NCI-60 one-dose SRB screen (Ovarian cancer); type: cell-based; conditions: Homo sapiens, single dose 10 µM, 48 h, read-out: Growth inhibition percent (GI %)
SK-OV-3 = assay: NCI-60 one-dose SRB screen (Ovarian cancer); type: cell-based; conditions: Homo sapiens, single dose 10 µM, 48 h, read-out: Growth inhibition percent (GI %)
OVCAR-4 = assay: NCI-60 one-dose SRB screen (Ovarian cancer); type: cell-based; conditions: Homo sapiens, single dose 10 µM, 48 h, read-out: Growth inhibition percent (GI %)
IGROV1 = assay: NCI-60 one-dose SRB screen (Ovarian cancer); type: cell-based; conditions: Homo sapiens, IGROV-1, single dose 10 µM, 48 h, read-out: Growth inhibition percent (GI %)
OVCAR-8 = assay: NCI-60 one-dose SRB screen (Ovarian cancer); type: cell-based; conditions: Homo sapiens, single dose 10 µM, 48 h, read-out: Growth inhibition percent (GI %)
OVCAR-5 = assay: NCI-60 one-dose SRB screen (Ovarian cancer); type: cell-based; conditions: Homo sapiens, single dose 10 µM, 48 h, read-out: Growth inhibition percent (GI %)
NCI-H460 = assay: NCI-60 one-dose SRB screen (Non-Small Cell Lung Cancer); type: cell-based; conditions: Homo sapiens, single dose 10 µM, 48 h, read-out: Growth inhibition percent (GI %)
NCI-H23 = assay: as above; type: cell-based; conditions: Homo sapiens, single dose 10 µM, 48 h, read-out: Growth inhibition percent (GI %)
NCI-H322M = assay: as above; type: cell-based; conditions: Homo sapiens, single dose 10 µM, 48 h, read-out: Growth inhibition percent (GI %)
A549/ATCC = assay: as above; type: cell-based; conditions: Homo sapiens, single dose 10 µM, 48 h, read-out: Growth inhibition percent (GI %)
NCI-H522 = assay: as above; type: cell-based; conditions: Homo sapiens, single dose 10 µM, 48 h, read-out: Growth inhibition percent (GI %)
EKVX = assay: as above; type: cell-based; conditions: Homo sapiens, single dose 10 µM, 48 h, read-out: Growth inhibition percent (GI %)
NCI-H226 = assay: as above; type: cell-based; conditions: Homo sapiens, single dose 10 µM, 48 h, read-out: Growth inhibition percent (GI %)
HOP-62 = assay: as above; type: cell-based; conditions: Homo sapiens, single dose 10 µM, 48 h, read-out: Growth inhibition percent (GI %)
hCA IX = hCA IX (Homo sapiens, UniProt Q16790); assay: CA inhibitory activity, spectrophotometric p-NPA assay; type: biochemical; conditions: p-NPA substrate, pH 7.5, 25 °C, triplicate; read-out: IC50 (µM) ± SD hCA IX
Method: The software used to calculate CA IC50 along with statistical analysis of the results is GraphPad Prism 9.00. Results were estimated by using one-way ANOVA and the Bonferroni’s multiple comparisons posthoc test was performed (P < 0.05) [46]
Carbonic anhydrase inhibitory activity:
The spectrophotometric assay was conducted in HEPES-Tris buffer, NaCl of pH 7.5 (20mM) at 25◦C. Each inhibitory well-consisted of 50 μL of assay buffer solution, 20 μL of hCA enzyme solution (20 ng/μL in Assay Buffer), and 50 μL of test compound in HPLC grade DMSO (maintain 10% of the final concentration). The mixture solution was
Substrate p-nitrophenyl acetate (p-NPA) (0.7mM) was prepared in HPLC grade methanol and the reaction was started by adding 20 μL to a well in a 96-well-plate. The amount of product formed was measured for 30 min continuously at 1 min intervals at 400 nm in a 96-well-plate using xMARK microplate spectrophotometer, Bio-Rad (USA). The activity of the controlled compound was taken as 100%. All experiments were carried out in triplicates of each used concentration, and results are represented as a

COLO 205 = assay: NCI-60 one-dose SRB screen (Colon Cancer); type: cell-based; conditions: Homo sapiens, single dose 10 µM, 48 h, read-out: Growth inhibition percent (GI %)
HCT-15 = assay: NCI-60 one-dose SRB screen (Colon Cancer); type: cell-based; conditions: Homo sapiens, single dose 10 µM, 48 h, read-out: Growth inhibition percent (GI %)
HCT-116 = assay: NCI-60 one-dose SRB screen (Colon Cancer); type: cell-based; conditions: Homo sapiens, single dose 10 µM, 48 h, read-out: Growth inhibition percent (GI %)
KM12 = assay: NCI-60 one-dose SRB screen (Colon Cancer); type: cell-based; conditions: Homo sapiens, single dose 10 µM, 48 h, read-out: Growth inhibition percent (GI %)
HCC-2998 = assay: NCI-60 one-dose SRB screen (Colon Cancer); type: cell-based; conditions: Homo sapiens, single dose 10 µM, 48 h, read-out: Growth inhibition percent (GI %)
SW-620 = assay: NCI-60 one-dose SRB screen (Colon Cancer); type: cell-based; conditions: Homo sapiens, single dose 10 µM, 48 h, read-out: Growth inhibition percent (GI %)

Chain of hCA XII (O43570 25-354): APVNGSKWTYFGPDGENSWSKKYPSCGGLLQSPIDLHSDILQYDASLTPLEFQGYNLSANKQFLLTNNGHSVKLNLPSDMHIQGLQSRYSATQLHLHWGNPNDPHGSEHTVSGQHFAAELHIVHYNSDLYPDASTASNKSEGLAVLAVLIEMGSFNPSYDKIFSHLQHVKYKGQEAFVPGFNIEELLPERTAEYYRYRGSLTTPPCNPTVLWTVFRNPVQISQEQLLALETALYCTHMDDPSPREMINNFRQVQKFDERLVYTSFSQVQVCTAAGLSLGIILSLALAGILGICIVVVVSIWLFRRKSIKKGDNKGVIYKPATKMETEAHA

With `Cc1ccc(-c2nn(-c3ccc(S(N)(=O)=O)cc3)cc2-c2nnc(N)s2)cc1` [Compound 10, 4-[4-(5-Amino-1,3,4-thiadiazol-2-yl)-3-(p-tolyl)-1H-pyrazol-1-yl] benzenesulfonamide] the IC50 (hCA XII) was 1.14 µM and 1.15 µM, the inhibition at 10 µM (RPMI-8226) was 10.2% and the inhibition at 10 µM (MOLT-4) was less than 5%. For the same compound, the inhibition at 10 µM (SR) was less than 5%, the inhibition at 10 µM (K-562) was 11.1% and the inhibition at 10 µM (CCRF-CEM) was 10.2%. The inhibition at 10 µM (HL-60(TB)) was 9.66%, the inhibition at 10 µM (SK-MEL-5) was 18.5% and the inhibition at 10 µM (UACC-257) was 5.16%. It also gave an inhibition at 10 µM (LOX IMVI) of 11.8%, an inhibition at 10 µM (SK-MEL-28) of less than 5% and an inhibition at 10 µM (M14) of less than 5%. For the same compound, the inhibition at 10 µM (MALME-3M) was less than 5%, the inhibition at 10 µM (MDA-MB-435) was less than 5% and the inhibition at 10 µM (UACC-62) was less than 5%. The inhibition at 10 µM (SK-MEL-2) was less than 5%, the inhibition at 10 µM (SF-539) was 15.6% and the inhibition at 10 µM (SF-295) was less than 5%. For the same compound, the inhibition at 10 µM (U251) was 9.42%, the inhibition at 10 µM (SNB-19) was 7.72% and the inhibition at 10 µM (SNB-75) was 19.5%. For the same compound, the inhibition at 10 µM (SF-268) was less than 5%, the inhibition at 10 µM (OVCAR-3) was less than 5% and the inhibition at 10 µM (NCI/ADR-RES) was less than 5%. The inhibition at 10 µM (SK-OV-3) was less than 5%, the inhibition at 10 µM (OVCAR-4) was less than 5% and the inhibition at 10 µM (IGROV1) was less than 5%. For the same compound, the inhibition at 10 µM (OVCAR-8) was less than 5%, the inhibition at 10 µM (OVCAR-5) was less than 5% and the melting point was 230 to 234 °C. It also gave an inhibition at 10 µM (NCI-H460) of less than 5%, an inhibition at 10 µM (NCI-H23) of 10.4% and an inhibition at 10 µM (NCI-H322M) of less than 5%. The inhibition at 10 µM (A549/ATCC) was less than 5%, the inhibition at 10 µM (NCI-H522) was 15.3% and the inhibition at 10 µM (EKVX) was 10.5%. For the same compound, the inhibition at 10 µM (NCI-H226) was 5.79%, the inhibition at 10 µM (HOP-62) was less than 5% and the IC50 (hCA IX) was 0.66 µM and 0.663 µM. The inhibition at 10 µM (COLO 205) was less than 5%, the inhibition at 10 µM (HCT-15) was less than 5% and the inhibition at 10 µM (HCT-116) was less than 5%. It also gave an inhibition at 10 µM (KM12) of less than 5%, an inhibition at 10 µM (HCC-2998) of less than 5% and an inhibition at 10 µM (SW-620) of less than 5%.

Reference: PMC12454493, “Insight on novel sulfamoylphenyl pyrazole derivatives as anticancer carbonic anhydrase inhibitors” (Molecular Diversity, 2024)
